Measured values from patent US7291601B1, “Arginine-rich anti-vascular endothelial growth factor peptides that inhibit growth and metastasis of human tumor cells by blocking angiogenesis” (Korea Greencross Corp., priority 1999, dated 2007).

Tests used:
[1] = system: HM7 (human colon carcinoma cell line); assay: Subcutaneous HM7 tumor growth in athymic nude mice; assay type: in vivo; conditions: after 15 days of subcutaneous injection
Description: From the next day, a solution of each peptide in PBS (0.5 μg/100 μl/day) was subcutaneously injected to the mice for 15 days. Sizes of the tumors thus formed were periodically measured while tumor volumes were calculated according to the following formula: Tumor Size=0.5×(Diameter)^2×length

[2] = system: HM7 (human colon carcinoma cell line); assay: Liver metastasis of HM7 cells transplanted into the spleen of nude mice; assay type: in vivo; conditions: control group PBS only
Source text: In order to conduct an experiment concerning the metastasis of cancer cells to the liver, cancerous cells were transplanted into the spleen. In this regard, after being anesthetized with diethyl ether, 4-week-old male mice (athymic nude mice, BALB/c/nu/nu, Charles River, Japan) underwent flank incision. […] Four weeks after the injection, the liver was excised from each mouse and measured for weight and the size and number of metastatic nodules formed. Each test group was composed of 6-7 mice. In a student's t-test, a p value less than 0.05 was regarded as being statistically significant. In the test using tetrazolium dye (cell titer 96 Non-radioactive Proliferation Assay Kit, Promega), each peptide was evaluated to have no influence on the growth of the cancer cells (5×10^3 cells/well), so that the possibility that the toxicity of the peptide themselves might inhibit the growth and metastasis of cancer cells could be excluded.

[3] = target: T1, VEGF109 (Homo sapiens, UniProt P15692); assay: Inhibition of labeled VEGF109 binding to its receptors; conditions: FIG. 9
T1 construct: made in house; host or cells: E. coli BL21(DE3)pLysS, inclusion bodies
T1 sequence (P15692 27-135 isoform P15692-4): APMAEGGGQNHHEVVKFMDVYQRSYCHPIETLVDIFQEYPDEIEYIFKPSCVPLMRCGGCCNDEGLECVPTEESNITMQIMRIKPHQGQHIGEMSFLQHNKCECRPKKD
Source text: In order to verify this postulation, Sequence 1 (RRKRRR) was examined for the common binding domain on VEGF because it inhibited the binding of VEGF to its receptors at the highest efficiency. First, appropriate primers were synthesized and used to amplify various cDNAs coding for VEGF165, VEGF121, VEFG8-121, VEGF109, and VEGF8-109 while a human liver cDNA library (Clontech) served as a template. After being inserted to plasmid pRSET A (Invitrogen), the cDNAs were sequenced. The resulting five pRSET A vectors, each having one of the five cDNAs, were introduced into an expression strain (BL21(DE3)pLysS) containing T7 RNA polymerase. […] The purified VEGFs were quantified by use of a protein assay reagent (Bio-Rad) and all found to bind to VEGF receptors and exert growth hormone activity on HUVEC. […] For use, each labeled protein was quantified by ELISA (enzyme-linked immunosorbent assay) using a mouse monoclonal anti-VEGF antibody (R&D systems).
Each peptide was examined for antagonistic activity against VEGF in the same manner as in Example 2. Referring to FIG. 9, the radioactivity measured from ^125I-labeled VEGF associated with fixed Sequence 1 (RRKRRR) (SEQ ID NO: 1) is plotted in the absence of competitors and in the presence of competitors for various VEGF isomers. […]

H-RRKRRR-NH2 [compound 8, NH2-Arg-Arg-Lys-Arg-Arg-Arg-CONH2]
effect on tumor size / growth of human colon carcinoma cells in mice [1]: effectively inhibits the growth of human colon carcinoma cells in mice
decrease of tumor size compared to the control (PBS) ([1]; 0.5 μg/100 μl/day): about 28%
weight of the liver, % of the control group [2]: 33%
number of metastatic nodules, % of the control group ([2]; liver): 16%
inhibition of binding of VEGF109 to its receptors [3]: not inhibited
